Like-named read-outs stand apart in the source and are kept apart here. Where no end group is shown, it is not given here.
Columns and labels:
[1] = system: tested bacteria and fungi; format: cell-based; conditions: for bacteria; serine-phosphorylated peptides
Experimental: (§1) The antimicrobial activities of HBc ARD peptides were tested on numerous bacterial strains from ATCC, including Pseudomonas aeruginosa Migula strain (ATCC 27853, ampicillin-resistant), Pseudomonas aeruginosa Migula strain (ATCC 9027, ampicillin-resistant), Klebsiella pneumoniae strain (ATCC 17593), Escherichia coli strain (ATCC 25922), Staphylococcus aureus subsp. strain (ATCC 25923, methicillin-resistant), Staphylococcus aureus subsp. strain (ATCC29213, methicillin-resistant), Staphylococcus aureus subsp. strain (ATCC 19636, methicillinresistant), and Candida albicans strain (ATCC 10231).
(§2) All peptides were purchased from Yao-Hong Biotechnology Inc. (Taipei, Taiwan). Vendors provided data of peptide characterizations, including HPLC and Mass. Antimicrobial activity was determined as described with some modifications as detailed below. Bacteria were grown overnight in Mueller-Hinton broth (Difeo) at 37° C., and during the mid-logarithmic phase, bacteria were diluted to 10^6 CFU (colony formation unit)/ml in phosphate buffer (10 mM sodium phosphate and 50 mM sodium chloride, pH 7.2). Peptides were serially diluted in the same buffer. Fifty microliter (μl) of bacteria was mixed with fifty μl of peptides at varying concentrations followed by incubation at 37° C. for 3 hours without shaking. […]

[2] = system: Huh7, HepG2, Vero and HEK293 cells; assay: Cytotoxicity, MTT assay; format: cell-based, human, monkey; conditions: for effect on cell viability: 0 to 100 μM, 1 hour at 37° C.
Experimental: (§3) (A) Hemolytic activities of HBc147-183 and melittin were measured with 10% human red blood cells (RBC). […] (B) Huh7, HepG2, Vero and HEK293 cells were incubated with varying concentrations (0 to 100 μM) of HBc147-183 and melittin for 1 hour at 37° C. The effects on cell viability were determined by MTT assay. Melittin was used as a positive control. […] (C) Kidney cells, Vero and HEK293 were stained with CFSE and seeded at day 0. At day 1, cells were incubated with varying concentrations (0 to 100 μM) of HBc147-183 for 1 hour. Cell proliferation at day 1 and day 3 were determined by flow cytometry. […] Samples assayed in FIGS. 7A-C were measured in triplicates. (D) (D) In vivo toxicity of ARD peptide HBc147-183 was determined using three-week old male ICR mice. The mice were injected intraperitoneally with peptide (10 and 20 mg/kg of body weight).
Cytotoxicity was measured in HepG2, Huh7, HEK293, and Vero cells by MTT assay. Cells were seeded at 10^4 cells/well in a 96-well plate and serial dilutions of peptides were added into each well. PBS was used as a negative control and melittin was used as a positive control. After 1 hour of incubation, the medium were replaced by a fresh medium containing 10% MTT solution (PROMEGA™), and the plate was incubated for 4 hours in 5% CO2 at 37° C., The absorbance at the wavelength a 595 nm was measured by an ELISA reader (BIO-RAD™ model 680).

[3] = system: K. pneumoniae; format: cell-based, Klebsiella pneumoniae; conditions: for Minimal bactericidal concentration: K. pneumoniae ATCC 13884
Experimental: as §1
(§4) All peptides were purchased from Yao-Hong Biotechnology Inc. (Taipei, Taiwan). Vendors provided data of peptide characterizations, including HPLC and Mass. Antimicrobial activity was determined as described with some modifications as detailed below. Bacteria were grown overnight in Mueller-Hinton broth (Difeo) at 37° C., and during the mid-logarithmic phase, bacteria were diluted to 10^6 CFU (colony formation unit)/ml in phosphate buffer (10 mM sodium phosphate and 50 mM sodium chloride, pH 7.2). Peptides were serially diluted in the same buffer. Fifty microliter (μl) of bacteria was mixed with fifty μl of peptides at varying concentrations followed by incubation at 37° C. for 3 hours without shaking. At the end of incubation, bacteria were placed on Mueller-Hinton broth agar plates, and allowed growth at 37° C. overnight for measurement of minimal bactericidal concentration (MBC). […] All peptides were tested in triplicate.

[4] = system: P. aeruginosa; format: cell-based, Pseudomonas aeruginosa
Experimental: as §1
(§5) Clinical isolates of Pseudomonas aeruginosa (NHRI-01, NHRI-02 AND NHRI-04) were obtained through the program of Taiwan Surveillance of Antimicrobial Resistance, National Health Research Institutes, Taiwan, Acinetobacter baumannii (ATCC 17989, ATCC 17978 CR, ATCC19606, ATCC 19606 CR, TCGH 45530 AND TCGH 46709) were obtained from Tzu-Chi Buddhist General Hospital in Taiwan, and clinical isolates (TCGH 1 45530 AND TCGH 46709) were identified using the Vitek system (Biomerieux Vitek, Inc., MO, USA). A. baumannii is defined as multidrug-resistant when the organism is resistant to piperacillin, piperacillin-tazobactam, ampicillin/sulbactam, imipenem, ceftazidime, gentamicin, amikacin, tetracycline, chloramphenicol, ciprofloxacin, and cotrimoxazole. Susceptibility to colistin was determined using the broth-dilution method, in accordance with the guidelines of the Clinical and Laboratory Standards Institute.
as §2, with “buffer.” for “buffer. Fifty microliter (μl) of bacteria was mixed with fifty μl of peptides at varying concentrations followed by incubation at 37° C. for 3 hours without shaking.”

[5] = system: S. aureus; format: cell-based, Staphylococcus aureus; conditions: for Minimal bactericidal concentration: S. aureus ATCC 19636
Experimental: as §1, §4

[6] = system: E. coli; format: cell-based, Escherichia coli; conditions: for Minimal bactericidal concentration: E. coli ATCC 25922
Experimental: as §1, §4

[7] = system: human red blood cells; assay: Hemolytic activity; format: cell-based; conditions: 10% hRBCs, one hour of incubation
Experimental: as §3
The hemolytic activities of peptides were determined by hemolysis against human red blood cells (hRBCs). Human blood was obtained in EDTA-containing tube and was centrifuged at 450 g for 10 min. […] After centrifugation at 450 g for 10 min, the percentage of hemolysis was determined by measuring the absorbance at the wavelength of 405 nm of the supernatant. Blank and 100% hemolysis were determined in PBS buffer and in the presence of 1% Triton X-100, respectively.

[8] = system: C. albicans; format: cell-based, Candida albicans
Experimental: as §1, §2

[9] = system: Vero and HEK293 cells; assay: CFSE cell proliferation assay; format: cell-based, human, monkey; conditions: 5, 25 and 100 μM for 1 hour, day 3 vs day 1
Experimental: as §3
To set up CFSE cell proliferation assay, 293 cells (human kidney origin) and Vero cells (monkey kidney origin) were resuspended in PBS to a final concentration of 10^6 cells/ml before incubation with 10 μM CFSE dye (CELLTRACE™ CFSE cell proliferation kit, INVITROGEN™) at 37° C. for 10 min. To quench the staining, ice-old culture media were then added and incubated on ice for 5 min. […] Forty-eight hours later, cells were harvested and analyzed by flow cytometry (FACSCanto, BD Bioscience).

[10] = system: ICR mice; assay: In vivo acute toxicity
Experimental: as §3
Three-week old male ICR mice (19 to 21 g) were purchased from BioLASCO (Taiwan) Overnight culture of bacteria in BHI broth (Difco) was subcultured in fresh BRI broth to log phase. Inoculums were diluted in BHI broth to indicated densities. To test the acute toxicity of ARD peptide in vivo, ICR male mice were inoculated intraperitoncally (i.p.) with 10 and 20 mg/kg HBc147-183 in PBS, respectively. […] After peptide injection, the number of dead mice was recorded daily for 7 days post-injection. […] Mortality was monitored daily for 7 days post-inoculation. […]

[11] = system: A. baumannii; format: cell-based, Acinetobacter baumannii
Excerpt: as §5
All peptides were purchased from Yao-Hong Biotechnology Inc. (Taipei, Taiwan). Vendors provided data of peptide characterizations, including HPLC and Mass. Antimicrobial activity was determined as described with some modifications as detailed below. […]

**Q.** CC(C)[C@H](NC(=O)[C@@H](NC(=O)[C@@H](N)[C@@H](C)O)C(C)C)C(=O)N[C@@H](CCCNC(=N)N)C(=O)N[C@@H](CCCNC(=N)N)C(=O)N[C@@H](CCCNC(=N)N)C(=O)NCC(=O)N[C@@H](CCCNC(=N)N)C(=O)N[C@@H](COP(=O)(O)O)C(=O)N1CCC[C@H]1C(=O)N[C@@H](CCCNC(=N)N)C(=O)N[C@@H](CCCNC(=N)N)C(=O)N[C@@H](CCCNC(=N)N)C(=O)N[C@H](C(=O)N1CCC[C@H]1C(=O)N[C@@H](COP(=O)(O)O)C(=O)N1CCC[C@H]1C(=O)N[C@@H](CCCNC(=N)N)C(=O)N[C@@H](CCCNC(=N)N)C(=O)N[C@@H](CCCNC(=N)N)C(=O)N[C@@H](CCCNC(=N)N)C(=O)N[C@@H](CO)C(=O)N[C@@H](CCC(N)=O)C(=O)N[C@@H](COP(=O)(O)O)C(=O)N1CCC[C@H]1C(=O)N[C@@H](CCCNC(=N)N)C(=O)N[C@@H](CCCNC(=N)N)C(=O)N[C@@H](CCCNC(=N)N)C(=O)N[C@@H](CCCNC(=N)N)C(=O)N[C@@H](CO)C(=O)N[C@@H](CCC(N)=O)C(=O)N[C@@H](CO)C(=O)N[C@@H](CCCNC(=N)N)C(=O)N[C@@H](CCC(=O)O)C(=O)N[C@@H](CO)C(=O)N[C@@H](CCC(N)=O)C(=O)N[C@@H](CS)C(=O)O)[C@@H](C)O [HBc155p162p170p] was tested. Which MBC [1] did it give?
**A.** Its MBC is > 32 µM.

**Q.** Which “effect on cell viability” value [2] does the source give for CC[C@H](C)[C@H](NC(=O)CN)C(=O)NCC(=O)N[C@@H](C)C(=O)N[C@H](C(=O)N[C@@H](CC(C)C)C(=O)N[C@@H](CCCCN)C(=O)N[C@H](C(=O)N[C@@H](CC(C)C)C(=O)N[C@H](C(=O)N[C@H](C(=O)NCC(=O)N[C@@H](CC(C)C)C(=O)N1CCC[C@H]1C(=O)N[C@@H](C)C(=O)N[C@@H](CC(C)C)C(=O)N[C@H](C(=O)N[C@@H](CO)C(=O)N[C@@H](Cc1c[nH]c2ccccc12)C(=O)N[C@H](C(=O)N[C@@H](CCCCN)C(=O)N[C@@H](CCCNC(=N)N)C(=O)N[C@@H](CCCCN)C(=O)N[C@@H](CCCNC(=N)N)C(=O)N[C@@H](CCC(N)=O)C(=O)N[C@@H](CCC(N)=O)C(N)=O)[C@@H](C)CC)[C@@H](C)CC)[C@@H](C)O)[C@@H](C)O)C(C)C)C(C)C [melittin, reference compound] here?
**A.** The value was “strong toxicity”.

**Q.** What about the viability of cells ([2]; low dose (3.125 μM), 1 hour) of the same compound?
**A.** The viability of cells was “significantly decreased”.

**Q.** Which results are given for “TVIRRRGGARASRSPRRRTPSPRRRRSQSPRRRRSQSPSANC [wHBc ARD]”?
**A.** Minimal bactericidal concentration [3]: 2 µM; Minimal bactericidal concentration ([4]; P. aeruginosa ATCC 9027): 2 µM; Minimal bactericidal concentration ([4]; P. aeruginosa ATCC 27853): 2 µM; Minimal bactericidal concentration [5]: 8 µM; Minimal bactericidal concentration [6]: 4 µM

**Q.** How did the MBC ([3]; K. pneumonia, strain not given) turn out when “TVVRRRGRSPRRRTPSPRRRRSQSPRRRRSQSRESQC [HBc147-183]” was run?
**A.** Its MBC is “lower than 4 μM”.

**Q.** And the Minimal bactericidal concentration [3]?
**A.** Its Minimal bactericidal concentration is 2 µM.

**Q.** What about the MBC ([4]; colistin-resistant P. aeruginosa) of the same compound?
**A.** Its MBC is > 16 µM.

**Q.** And the hemolysis [7]?
**A.** Its hemolysis is “no detectable hemolysis”.

**Q.** What about the Minimal bactericidal concentration [5] of the same compound?
**A.** The Minimal bactericidal concentration was 4 µM.

**Q.** What about the MBC ([5]; S. aureus, strain not given) of the same compound?
**A.** The MBC was “around 4 μM”.

**Q.** What about the MBC [8] of the same compound?
**A.** The MBC was ~8 µM.

**Q.** And the “effect on cell proliferation” value [9]?
**A.** Its value is “no significant effect”.

**Q.** And the Minimal bactericidal concentration [6]?
**A.** The Minimal bactericidal concentration was 4 µM.

**Q.** And the MBC ([6]; E. coli, strain not given)?
**A.** Its MBC is “around 4 μM”.

**Q.** And the in vivo toxicity ([10]; 20 mg/kg i.p.)?
**A.** Its in vivo toxicity is “no apparent in vivo toxicity”.

**Q.** And the “survival after peptide injection” value ([10]; 10 and 20 mg/kg intraperitoneally, 7 days)?
**A.** Its value is “All mice were alive”.

**Q.** What about the MBC [11] of the same compound?
**A.** Its MBC is 0.5 to 1 µM.

**Q.** And the MBC ([11]; colistin-resistant A. baumannii)?
**A.** Its MBC is 0.5 to 1 µM.

**Q.** And the “effect on cell viability” value [2]?
**A.** The value was “no detectable effect”.

**Q.** And the cytotoxicity ([2]; 100 μM, 1 hour)?
**A.** Its cytotoxicity is “only a low level of cytotoxicity”.

— US10214564B2, “Antimicrobial peptides derived from hepatitis B virus core protein arginine-rich domain” (priority 2013, dated 2019)
